Here are results for one compound from US20070015771A1, “Lonidamine analogs” (Threshold pharmaceuticals, Inc., priority 2004, published 2007).

Where two headings read alike, the source gives them in different places.

In assay [1] the test system is SH rat prostate. The assay can be described thus: 5 day systemic administration in male SH rats, prostate. The assay is classed as in vivo. The following applies: male SH rats, oral daily for 5 days at 50 mg/ml, day 6. How it is done:
The effect of test compounds (lonidamine and lonidamine analogs) on the SH rat prostate was determined as follows. The test compound was orally administered daily for 5 days to male, SH rat, (n=6, 14 weeks old, Charles River Labs) at 50 mg/ml concentrations (as a 0.5% carboxymethylcellulose formulation). The control rats received an equal amount of the vehicle ([…]). Blood samples were collected 2 hours after administration on day 6, for pharmokinetic analysis of the compounds. On day 6 the rats were sacrificed and the entire prostate and the individual lobes (e.g., the ventral, dorso-lateral, and anterior lobes) were removed and weighed to measure absolute weights. Relative weights of prostate and individual lobes were calculated by dividing the absolute weight by the total body weight of the […]. Relative weights of the entire prostate, the dorsal prostate, and the ventral prostate were calculated by dividing the absolute weight by the total weight of the mouse. The histomorphology of the prostate was also analyzed and compared to that of the control or untreated prostate.

Assay [2] has as its system left and right testis. Nature of the assay: Mouse study, 10 days oral, testis weight. The assay is classed as in vivo. The following applies: C57B1/6J mice, oral daily for 10 days, 0.2-20 mg/kg. How it is done:
The control mice received an equal amount of the vehicle (carboxymethylcellulose). […] Relative weights of entire prostate and individual lobes were calculated by dividing the corresponding absolute weight by the total weight of the mouse. Relative weights of the entire prostate, the dorsal prostate, and the ventral prostate were calculated by dividing the absolute weight by the total weight of the mouse. Relative weights of the left and right testis were calculated by dividing the corresponding absolute weights by the total weights of the mouse.

In assay [3] the test system is PC3 cells. Nature of the assay: Antiproliferation assay 3 days, PC3 cells. The settings on record: 3 day treatment; read-out: PC-3 cell line IC50. The assay is classed as cell-based, human. The procedure:
(§1) To determine the effect of lonidamine analogs thereof on cell proliferation, the antiproliferative activity of these compounds was tested in a multi-well Alamar Blue based assay (at 3 days). Cell growth in the presence and absence of the test compound was compared, as measured by a fluoresence plate reader at excitation 550 nm and emission 590 nm (see Biosource International Inc., Tech Application Notes, Use of Alamar Blue in the measurement of Cell Viability and Toxity, Determining IC50). The following cell lines were tested: PWR-1E cells ((ATCC CRL-11611), 3500 cells/well/200 μl in Keratinocyte SFM medium (Gibco Products, Invitrogen Corporation, Carlsbad, Calif.)); DU-145 cells ((ATCC HTB-81), 4000 cells/well/200 μl in MEM Eagles medium (ATCC, Manassas, Va.)); PC3 cells ((ATCC CRL-1435), 4000 cells/200 μl in Modified HAM's F12 medium (ATCC, Manassas, Va.)); PNt2 cells ((Sigma-Aldrich, 95012613-1 VL), 4000 cells/well/200 μl in RPMI medium (Gibco Products, Invitrogen Corporation, Carlsbad, Calif.), BPH-1 ((DSMZ ACC-143), 4000 cells/well/200 μl in RPMI medium (Gibco Products, Invitrogen Corporation, Carlsbad, Calif), and NCI-H460 cells ((ATCC HTB-177), 4000 cells/well/200 μl in RPMI medium (Gibco Products, Invitrogen Corporation, Carlsbad, Calif.)). The cells were seeded in a 96 well plate in a medium specified above. After 24 hours, these plates were divided into 2 groups—Control group and 3 day treatment group. A test compound was added to each plate in the treatment groups at concentrations of […] as tabulated in Table 1 (in 2 μl 1 of 100% DMSO, final DMSO concentration 1% in all wells). For NCI-H460 cells, test compounds were added to each plate in the treatment groups at concentrations of 600, 300, 100, 30, 10, 3, and 1 μM (in 2 μl of 100% DMSO, final DMSO concentration 1% in all wells). The cells in the 3 day treatment group were incubated for 3 days, followed by staining with AlamarBlue. In the Control group, AlamarBlue was added to the plate at (i) day 0 and (ii) day 3 and measured to establish the control reading. […] For the NCI-H460 cells, the capacity of the cells to proliferate was measured 5 hours after addition of AlamarBlue using the same fluorescence plate reader as stated above.

Assay [4] concerns PNt2 cells. Nature of the assay: Antiproliferation assay 3 days, PNt2 cells. The following applies: 3 day treatment; read-out: PNT2c cell line IC50. Type of assay: cell-based. The procedure:
as §1

Assay [5] has as its system BPH-1. The assay can be described thus: Antiproliferation assay 3 days, BPH-1 cells. The assay is classed as cell-based. The following applies: 3 day treatment; read-out: BPH-1 cell line IC50. The procedure: as §1
In assay [6] the test system is DU-145 cells. Nature of the assay: Antiproliferation assay 3 days, DU-145 cells. Type of assay: cell-based. The settings on record: 3 day treatment; read-out: Du-145 cell line IC50. The procedure: as §1
For assay [7], the system named is H460 cells. The assay can be described thus: Antiproliferation assay (Alamar Blue), H460 cells. Type of assay: cell-based. How it is done:
To determine the effect of lonidamine and analogs thereof on cell proliferation, the antiproliferative activity of these compounds was tested in a multi-well Alamar Blue based assay (at 2 h and 3 days). Cell growth in the presence and absence of the test compound (compounds 1-22) was compared, as measured by a fluorescence plate reader at excitation 550 nm and emission 590 nm (see Biosource International Inc., Tech Application Notes, Use of Alamar Blue in the measurement of Cell Viability and Toxicity, Determining IC50). H460 cells (ATCC HTB-177 ([…]), 4,000 cells/well/200 μl) and LNCap cells (ATCC CRL-1740, 6,000 cells/well/200 μl) were seeded in a 96 well plate in RPMI medium (Invitrogen Corporation, Carlsbad, Calif.). After 24 hours, these plates were divided into 3 groups—Control group, 2 h treatment group and 3 day treatment group. In the 2 h treatment group, after 2 h the cells were rinsed to remove the test compound and incubated for 3 days, followed by staining with AlamarBlue. The cells in the 3 day treatment group were incubated for 3 days, followed by staining with AlamarBlue. In the Control group, AlamarBlue was added to the plate at (i) day 0 and (ii) day 3 and measured to establish the control reading.

Assay [8] has as its system mouse prostate cells. The assay can be described thus: In vivo viability and proliferation of mouse prostate cells (TUNEL, PCNA). The following applies: mice treated with 20 mg/kg, with respect to vehicle. How it is done:
Prostate cells harvested from mice treated with 20 mg/kg of Compound I were assayed by the TUNEL assay (e.g., see Example 48).

Take `O=C(NO)c1nn(Cc2ccc(Cl)cc2Cl)c2ccccc12` [Compound 1]: the Prostate shrinkage in assay [1] is on record as −4.8%. In addition, the “absolute left testis weight (FIG. 13)” value in assay [2] is given as “dose dependent reduction”. In assay [2], the “absolute right testis weight (FIG. 12)” value is reported as “dose dependent reduction”. For the same compound, in assay [2], the “relative left testis weight (FIG. 5)” value is given as “dose dependent reduction”. In assay [2], the “relative right testis weight (FIG. 4)” value is reported as “dose dependent reduction”. Moreover, the half-maximal inhibitory concentration (IC50) was determined as 15 µM in assay [3], 17 µM in assay [4], 17.5 µM in assay [5] and 11 µM in assay [6]. Further, the GI50 in assay [7] (3 day treatment, read-out: GI50 H460 cell 3 days) worked out at 15.8 µM; in assay [7] (read-out: GI50 H460 cell 2 hr, 2 h treatment then 3 days incubation), 50 µM. Further, the “apoptosis of prostate cells (TUNEL assay)” value in assay [8] is reported as “more apoptotic”. Further, in assay [8], the “cell cycle inhibition (PCNA assay)” value is reported as “greater cell cycle inhibition”.

For orientation: IC50 means the concentration that gives 50% inhibition. Usually GI50 stands for the concentration that inhibits growth by half.
